In PubChem BioAssay AID330 (DTP/NCI, 2004):
Several values for one entry are separate records, joined by “and”; a condition that tells them apart may be missing. Equal entries are not always repeated. Toxic doses and inconclusive results are not listed. How the source made its calls: active means survival T/C of 150% or more; inactive means T/C below 125% in these data.

Tested on: P388 leukemia ip, CD2F1 mice, survival T/C
Experiment: NCI In Vivo Anticancer Drug Screen. Data for tumor model P388 Leukemia (intraperitoneal) in CD2F1 (CDF1) mice
Conditions: endpoint: median survival time, higher = longer survival
Procedure, shortened: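 Mice carrying the transplanted tumor received test compound or vehicle. Survival was recorded in each group, and the value is the treated-group measurement divided by that of the vehicle-treated control group.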

[1] = dose: 60.0 mg/kg/injection, schedule: Q01DX005 (ip), vehicle: Klucel (hydroxypropylcellulose) (HPC)
[2] = dose: 120.0 mg/kg/injection, schedule: Q01DX005 (ip), vehicle: Klucel (hydroxypropylcellulose) (HPC)
[3] = dose: 240.0 mg/kg/injection, schedule: Q01DX005 (ip), vehicle: Klucel (hydroxypropylcellulose) (HPC)
[4] = dose: 100.0 mg/kg/injection, schedule: Q04DX003 (ip), vehicle: saline
[5] = dose: 200.0 mg/kg/injection, schedule: Q04DX003 (ip), vehicle: saline
[6] = dose: 400.0 mg/kg/injection, schedule: Q04DX003 (ip), vehicle: saline
[7] = dose: 50.0 mg/kg/injection, schedule: Q01DX009 (ip), vehicle: Klucel (hydroxypropylcellulose) (HPC)
[8] = dose: 100.0 mg/kg/injection, schedule: Q01DX009 (ip), vehicle: Klucel (hydroxypropylcellulose) (HPC)
[9] = dose: 200.0 mg/kg/injection, schedule: Q01DX009 (ip), vehicle: Klucel (hydroxypropylcellulose) (HPC)
[10] = dose: 50.0 mg/kg/injection, schedule: Q01DX005 (ip), vehicle: saline with Tween-80
[11] = dose: 100.0 mg/kg/injection, schedule: Q01DX005 (ip), vehicle: saline with Tween-80
[12] = dose: 200.0 mg/kg/injection, schedule: Q01DX005 (ip), vehicle: saline with Tween-80
[13] = dose: 12.5 mg/kg/injection, schedule: Q01DX005 (ip), vehicle: Klucel (hydroxypropylcellulose) (HPC)
[14] = dose: 25.0 mg/kg/injection, schedule: Q01DX005 (ip), vehicle: Klucel (hydroxypropylcellulose) (HPC)
[15] = dose: 50.0 mg/kg/injection, schedule: Q01DX005 (ip), vehicle: Klucel (hydroxypropylcellulose) (HPC)
[16] = dose: 100.0 mg/kg/injection, schedule: Q01DX005 (ip), vehicle: Klucel (hydroxypropylcellulose) (HPC)
[17] = dose: 120.0 mg/kg/injection, schedule: Q01DX005 (ip), vehicle: saline with Tween-80
[18] = dose: 240.0 mg/kg/injection, schedule: Q01DX005 (ip), vehicle: saline with Tween-80
[19] = dose: 50.0 mg/kg/injection, schedule: Q01DX009 (ip), vehicle: saline
[20] = dose: 100.0 mg/kg/injection, schedule: Q01DX009 (ip), vehicle: saline
[21] = dose: 200.0 mg/kg/injection, schedule: Q01DX009 (ip), vehicle: saline
[22] = dose: 60.0 mg/kg/injection, schedule: Q01DX005 (ip), vehicle: saline
[23] = dose: 120.0 mg/kg/injection, schedule: Q01DX005 (ip), vehicle: saline
[24] = dose: 240.0 mg/kg/injection, schedule: Q01DX005 (ip), vehicle: saline

Measured: T/C

CC(/C=C/c1ccc(O)cc1)=N\NC(N)=O
inactive: dose: 30.0 mg/kg/injection, schedule: Q01DX005 (ip), vehicle: Klucel (hydroxypropylcellulose) (HPC) 103 % of control | [1] 99 % of control | [2] 104 % of control | [3] 101 % of control

O=C(O)C1C(C(=O)O)C1c1ncnc2nc[nH]c12 (stereo unspecified)
inactive: dose: 25.0 mg/kg/injection, schedule: Q04DX003 (ip), vehicle: saline 99 % of control and 100 % of control | dose: 50.0 mg/kg/injection, schedule: Q04DX003 (ip), vehicle: saline 100 % of control and 101 % of control | [4] 98 % of control and 103 % of control and 100 % of control | [5] 103 % of control and 104 % of control | [6] 100 % of control and 99 % of control

C[Si](C)(C)N1C(=O)c2ccccc2C1=O
inactive: [7] 100 % of control | [8] 115 % of control | [9] 107 % of control

OCCN(CCO)Cc1nc2ccc(Cl)cc2[nH]1
inactive: dose: 50.0 mg/kg/injection, schedule: Q01DX005 (ip), vehicle: saline 98 % of control | dose: 100.0 mg/kg/injection, schedule: Q01DX005 (ip), vehicle: saline 91 % of control | dose: 200.0 mg/kg/injection, schedule: Q01DX005 (ip), vehicle: saline 95 % of control

COc1ccc(N=Nc2c(-c3ccccc3)nn(C(=S)S)c2-c2ccccc2)cc1
inactive: [10] 93 % of control | [11] 96 % of control | [12] 93 % of control

CC1(C)C(=O)NC(=O)c2ccccc21
inactive: [13] 107 % of control | [14] 107 % of control | [15] 100 % of control and 102 % of control

COC(=O)C1CCC[P+]1(C)C (stereo unspecified)
inactive: dose: 100.0 mg/kg/injection, schedule: Q01DX001 (ip), vehicle: saline 106 % of control | dose: 400.0 mg/kg/injection, schedule: Q01DX001 (ip), vehicle: saline 101 % of control

O=C(C1=CCCCC1)c1ccc(-c2ccccc2)cc1
inactive: dose: 100.0 mg/kg/injection, schedule: Q01DX009 (ip), vehicle: saline with Tween-80 100 % of control | dose: 200.0 mg/kg/injection, schedule: Q01DX009 (ip), vehicle: saline with Tween-80 100 % of control | dose: 400.0 mg/kg/injection, schedule: Q01DX009 (ip), vehicle: saline with Tween-80 100 % of control

OCCN1CCN(CCCN2c3ccccc3Sc3ccc(C(F)(F)F)cc32)CC1
inactive: dose: 7.5 mg/kg/injection, schedule: Q04DX003 (ip), vehicle: saline 111 % of control | dose: 15.0 mg/kg/injection, schedule: Q04DX003 (ip), vehicle: saline 120 % of control | dose: 60.0 mg/kg/injection, schedule: Q04DX003 (ip), vehicle: saline 123 % of control

COC(=O)[C@H]1[C@H]2C[C@@H]3c4[nH]c5cc(OC)ccc5c4CCN3C[C@H]2C[C@@H](OC(=O)c2cccc(N(C)C)c2)[C@@H]1OC
inactive: [13] 95 % of control | [14] 94 % of control | [15] 116 % of control | [16] 86 % of control

COc1ccc(N=C=S)cc1N=C=S
inactive: dose: 6.25 mg/kg/injection, schedule: Q04DX003 (ip), vehicle: saline with Tween-80 95 % of control | dose: 12.5 mg/kg/injection, schedule: Q04DX003 (ip), vehicle: saline with Tween-80 104 % of control | dose: 25.0 mg/kg/injection, schedule: Q04DX003 (ip), vehicle: saline with Tween-80 104 % of control

CCOc1c(-c2ccccc2)c(=O)n2c3ccccc3n(CC)c2c1C#N
inactive: dose: 7.5 mg/kg/injection, schedule: Q01DX005 (ip), vehicle: saline with Tween-80 86 % of control | dose: 15.0 mg/kg/injection, schedule: Q01DX005 (ip), vehicle: saline with Tween-80 87 % of control | dose: 30.0 mg/kg/injection, schedule: Q01DX005 (ip), vehicle: saline with Tween-80 93 % of control | [17] 88 % of control | [18] 98 % of control and 100 % of control

CC(SC(=O)c1ccccc1)(SC(=O)c1ccccc1)c1ccccc1
inactive: [7] 94 % of control | [8] 95 % of control | [9] 93 % of control

Nc1cc2nc(=O)cc3n2c(n1)SC3
inactive: [15] 99 % of control | [16] 100 % of control | dose: 200.0 mg/kg/injection, schedule: Q01DX005 (ip), vehicle: Klucel (hydroxypropylcellulose) (HPC) 100 % of control

CN1C(=O)NC2(C1=O)C(=O)N(C)C(=O)N2C (stereo unspecified)
inactive: [19] 91 % of control | [20] 92 % of control | [21] 95 % of control

CCOC(=O)N1C=CC(CC(=O)N(CC)CC)C=C1 (tested in a mixture with another compound)
inactive: [22] 102 % of control | [23] 96 % of control | [24] 108 % of control

COc1ccc(C(=O)Cc2nc3nnc(N)n3[nH]c2=O)cc1
inactive: [22] 99 % of control | [23] 104 % of control | [24] 103 % of control

CCCCCCCC[N+]1([O-])CCCCC1
inactive: [19] 97 % of control | [20] 102 % of control

O=C1c2c(O)cccc2C(Br)c2cccc(O)c21
inactive: [1] 107 % of control | [2] 114 % of control | [3] 98 % of control

O=S(=O)(O)C1=CC(=N\Cl)/C=CC/1=N/Cl
inactive: dose: 25.0 mg/kg/injection, schedule: Q01DX005 (ip), vehicle: saline + Tween-80 + alcohol 100 % of control and 113 % of control | dose: 50.0 mg/kg/injection, schedule: Q01DX005 (ip), vehicle: saline + Tween-80 + alcohol 107 % of control and 113 % of control and 119 % of control | dose: 100.0 mg/kg/injection, schedule: Q01DX005 (ip), vehicle: saline + Tween-80 + alcohol 111 % of control and 117 % of control | dose: 200.0 mg/kg/injection, schedule: Q01DX005 (ip), vehicle: saline + Tween-80 + alcohol 116 % of control and 120 % of control

O=C1COc2ccc(F)cc2N1
inactive: [1] 102 % of control and 103 % of control | [2] 101 % of control and 96 % of control | [3] 101 % of control and 102 % of control

COC(=O)C(N)CCl (stereo unspecified)
inactive: dose: 12.5 mg/kg/injection, schedule: Q01DX009 (ip), vehicle: water 91 % of control | dose: 25.0 mg/kg/injection, schedule: Q01DX009 (ip), vehicle: water 92 % of control | dose: 50.0 mg/kg/injection, schedule: Q01DX009 (ip), vehicle: water 90 % of control | dose: 100.0 mg/kg/injection, schedule: Q01DX009 (ip), vehicle: water 99 % of control | dose: 200.0 mg/kg/injection, schedule: Q01DX009 (ip), vehicle: water 90 % of control

COc1cc2c(cc1O)C(=O)c1[nH]c3ccccc3c1CC2
inactive: [4] 107 % of control | [5] 107 % of control | [6] 101 % of control

O=S(=O)(O)SCCN1CCOCC1
inactive: [20] 90 % of control | [21] 115 % of control | dose: 400.0 mg/kg/injection, schedule: Q01DX009 (ip), vehicle: saline 110 % of control

CCN(CC)CCCNC(=O)Cc1ccc2c(c1)C(=O)c1ccccc1C2=O
inactive: dose: 25.0 mg/kg/injection, schedule: Q01DX005 (ip), vehicle: water 106 % of control | dose: 50.0 mg/kg/injection, schedule: Q01DX005 (ip), vehicle: water 108 % of control | dose: 100.0 mg/kg/injection, schedule: Q04DX002 (ip), vehicle: water 97 % of control

c1ccc(CN2CCOC2)cc1
inactive: dose: 12.5 mg/kg/injection, schedule: Q01DX009 (ip), vehicle: saline 108 % of control | dose: 25.0 mg/kg/injection, schedule: Q01DX009 (ip), vehicle: saline 108 % of control | [19] 118 % of control and 124 % of control | [20] 123 % of control | [21] 116 % of control

CC1C2C=CC1C(c1c3ccc(=O)cc-3oc3cc(O)ccc13)C2C(=O)O (stereo unspecified)
inactive: dose: 60.0 mg/kg/injection, schedule: Q01DX005 (ip), vehicle: saline with Tween-80 99 % of control | [17] 100 % of control | [18] 101 % of control

CCCCCCC(/C=C/c1ccc(Cl)c(Cl)c1)=N\NC(=O)C(N)=O
inactive: [19] 101 % of control | [20] 101 % of control | [21] 110 % of control

CC1(C)OCC(C2OC3OC(C)(C)OC3C2NN)O1 (stereo unspecified)
inactive: [10] 95 % of control | [11] 98 % of control | [12] 100 % of control
